The subject of assay [1] is CHO cells stably expressing Gaussia luciferase (GLuc). Put plainly: Secreted Gaussia luciferase assay in CHO cells stably expressing GLuc transfected with Rheb vectors. The conditions noted are these: for increase in secreted Gaussia luciferase: day 7, normalised to cell number. It counts as cell-based. Here is the method:
CHO cells stably expressing Firefly luciferase (FLuc) or Gaussia luciferase (GLuc) as indicated were transfected using Lipofectamine3000 with an empty vector (EV) or vectors for Rheb WT, S21L, T23M, G29S, Y35N or E40K and also treated with the mTOR inhibitor AZD8055 at 100 nM for the total duration where indicated. Fluc and GLuc assays were performed 24 h after transfection and then every 48 h for 7 days. Assay results are normalised to cell number. GLuc-CHO cells were harvested for SDS-PAGE and Western Blot analysis at the 168 h (7-day) time-point to probe for intracellular GLuc, FLAG (Rheb) and actin, as ‘loading control’. […] However, Rheb-T23M and —Y35N caused a significant 3-fold increase in secreted Gaussia luciferase that was also seen with E40K and was prevented by treatment with AZD8055 (C/D [histogram of day 7]). In (E), secreted GLuc was monitored every 4 h from 24 h to 60 h showing the rate of secretion of GLuc was higher when Rheb-T23M is expressed as compared to Rheb-Y35N. The pattern for intracellular levels of Gaussia luciferase (assessed by immunoblot of cell lysates harvested at 7 days post transfection) more closely resemble those intracellular firefly luciferase (F) with little change compared to either the empty vector or WT while still retaining heightened mTORC1 signalling as indicated by the elevated levels of P-S6K1 Thr389 compared to cells transfected with the empty vector. CHO cells expressing Rheb-T23M, Y35N and E40K show a small increases in general protein synthesis but a marked increase in secreted Gaussia protein that is blocked by mTOR inhibition. Thus, Rheb[T23M] selectively promotes production of the secreted protein GLuc in a process that requires mTOR signalling.
Constructs were introduced into CHO cells using Lipofectamine3000 (Life Technologies) according to the manufacturer's protocol. Cell lines stably expressing secreted luciferase were generated by cloning the GLuc gene with a signal sequence from Nanolight Technology (see paper sent with this version) and cloning this into the pcDNA4 commercially available vector where gene expression was driven by a CMV promoter. The subsequent vectors were transfected, using lipofectamine, into CHO-S freestyle suspension cells and grown in CD-CHO media and then stable transfectant pools selected by addition of zeocin antibiotic. Once stable pools had emerged these were subjected to limited dilution cloning to obtain a range of pools with different secreted GLuc expression levels. Methods as are described, for example, in Josse et al. (2009) Biotechnology and Bioengineering 105: 556-566.
For Gaussia luciferase, we employed the BioLux® Gaussia Luciferase Assay Kit (New England Biolabs (NEB), Cat. No. E3300S) and for firefly luciferase the Luciferase Assay System from Promega (Cat. No. E1500). Cells were grown in Ham's F12 medium F12 nutrient mix, Ham's (Life Technologies, Cat. No. 11765054).
CHO cells stably expressing Firefly luciferase (FLuc; which is cytoplasmic) or Gaussia luciferase (GLuc; which is secreted) as indicated were transfected using Lipofectamine3000 with an empty vector (EV) or vectors for Rheb WT, S21L, T23M, G29S, Y35N or E40K and treated with the mTOR inhibitor AZD8055 at 100 nM for the total duration where appropriate. Fluc and GLuc assays were performed at 24 h after transfection and then every 48 h for 7 days. Assay results were normalised to cell number. […]

For assay [2], the system named is mTORC1 signalling. In words: mTORC1 signalling (Western blot, S6K1 and rpS6) in transfected CHO cells starved of serum and amino acids, with or without TSC1/2 co-transfection. It counts as cell-based. Conditions: for mTORC1 signalling in the absence of upstream activation: no serum 16 h, D-PBS 1 h, compared to empty vector and Rheb-WT; for mTORC1 signalling when co-transfected with TSC1/TSC2: no serum and amino acids. Here is the method:
(§1) GTP. GST-Rheb bound to GDP or GTP was pulled down using glutathione beads and the nucleotides were then separated by thin-layer chromatography and visualized by phosphorimager. The positions of GDP and GTP are shown (FIG. 1A). […] FIGS. 1C-1D: CHO cells were co-transfected using Lipofectamine 3000 with vectors encoding wildtype (WT) Rheb or the indicated mutants and TSC1/2 as indicated. 36 h after transfection, cells were transferred to Ham's F12 media lacking FBS for 16 h. Cells were the transferred to Dulbecco's phosphate-buffered saline (D-PBS, which lacks amino acids) for 1 h before cell lysates were harvested for SDS-PAGE and Western Blotting analysis using the indicated antibodies.
For orientation: A western blot detects proteins with antibodies after separation by electrophoresis.

The test system of assay [3] is TSC1/TSC2. In words: GAP assay: TSC1/TSC2-promoted hydrolysis of GTP bound to recombinant GST-Rheb. Format: biochemical. The conditions noted are these: FLAG-TSC1, FLAG-TSC2, [α-32P]GTP, n=3.
Source text: as §1, with “FIGS. 1A-1B: Recombinant GST-Rheb proteins were subjected to GAP assay in the presence of FLAG-TSC1, FLAG-TSC2 and [α-^32P] GTP.” for “GTP.”, “antibodies. […] This effect is consistent with lack of sensitivity of the mutant Rhebs to TSC1/TSC2. Thus the Rheb mutants S21L, T23M, G29S, Y35N and E40K promote mTORC1 signalling in the absence of upstream activation due to insensitivity to the GAP activity of the TSC complex.” for “antibodies.”
A) Recombinant GST-Rheb proteins were subjected to GTPase assays in the presence of FLAG-TSC1, FLAG-TSC2 and [α-^32P]GTP. Nucleotide-bound GST-Rheb was purified from the reaction mixture using 20 μl glutathione bead slurry. Radioactive GDP and GTP were separated by thin-layer chromatography and visualized by phosphorimager.

For assay [4], the system named is ExpiCHO-S™ cells. In words: Rabbit IgG secretion by ExpiCHO-S cells stably expressing Rheb variants (Easy-Titer Rabbit IgG Assay). Format: cell-based. The conditions noted are these: single replicate; compared to Rheb-WT or Rheb-Y35N. How it is done:
Materials and Methods: ExpiCHO-S™ cells were purchased from ThermoFischer Scientific and cultured in ExpiCHO™ Expression Medium at 37° C. at 8% CO2. […] Transfected cells were grown in 600 μg/mL […] for 6 weeks. Surviving cells were plated as single cells in a 96-well plate and monoclonal colonies selected for FLAG-Rheb expression.
Rabbit IgG secretion was determined using the ExpiCHO™ Expression system according to the manufacturer's instructions. Briefly, ExpiCHO™ cells expressing either endogenous Rheb or stably expressing exogenous Rheb were seeded at 6×10^6 cells/mL in 25 mL of ExpiCHO™ Expression Medium and transfected with 20 μg of a pcDNA3.1 vector encoding heavy and light chains of Rabbit IgG at a 1:2 ratio of heavy chain:light chain using ExpiFectamine™ CHO Reagent. 24 hours after transfection, cells were feed with ExpiCHO™ Feed and ExpiFectamine™ CHO Enhancer and transferred to 32° C., 5% CO2. Cells were allowed to grow for 10 days with 100 μL samples taken every day. After 10 days, Cells were pelleted by centrifugation at 4000×g for 30 minutes at 4° C. and the supernatant filtered through a […] PVFD filter and collected. IgG yield was determined using Easy-Titer™ Rabbit IgG Assay kit and calculated from a standard curve.

Assay [5] has as its system mTORC1 localisation at the lysosome. In words: Immunofluorescence of mTOR and LAMP1 colocalisation in serum-starved transfected CHO cells. Format: cell-based. Conditions: medium lacking FBS for 16 h. Here is the method:
24 h after transfection cells were transferred to medium lacking FBS for 16 hours. Cells were fixed with 4% paraformaldehyde, permeabilized with 0.05% Triton X-100, blocked with 10% normal donkey serum before LAMP1 and then anti-mTOR antibodies were applied overnight. Alexa Fluor™ 488 and 594-labelled secondary antibodies were applied before cells were mounted and stained with DAPI.
24 h after transfection cells were transferred to medium lacking FBS for 16 h. Cells were fixed with 4% paraformaldehyde, permeabilized with 0.05% Triton X-100, blocked with 10% normal donkey serum before LAMP1 and mTOR antibodies were applied overnight. Alexa Fluor™ 488 and 594 secondary antibodies were applied before cells were mounted and stained with DAPI.

Assay [6] deals with mTORC1 and ER Stress activation markers. Put plainly: Western blot for mTORC1 and ER stress activation markers in ExpiCHO cells stably expressing Rheb variants. Format: cell-based.
The subject of assay [7] is CHO cells stably expressing Firefly luciferase (FLuc). In words: Firefly luciferase assay in CHO cells stably expressing FLuc transfected with Rheb vectors. Conditions: day 7, normalised to cell number. Format: cell-based. Here is the method:
CHO cells stably expressing Firefly luciferase (FLuc) or Gaussia luciferase (GLuc) as indicated were transfected using Lipofectamine3000 with an empty vector (EV) or vectors for Rheb WT, S21L, T23M, G29S, Y35N or E40K and also treated with the mTOR inhibitor AZD8055 at 100 nM for the total duration where indicated. Fluc and GLuc assays were performed 24 h after transfection and then every 48 h for 7 days. Assay results are normalised to cell number. GLuc-CHO cells were harvested for SDS-PAGE and Western Blot analysis at the 168 h (7-day) time-point to probe for intracellular GLuc, FLAG (Rheb) and actin, as ‘loading control’. […] In (E), secreted GLuc was monitored every 4 h from 24 h to 60 h showing the rate of secretion of GLuc was higher when Rheb-T23M is expressed as compared to Rheb-Y35N. The pattern for intracellular levels of Gaussia luciferase (assessed by immunoblot of cell lysates harvested at 7 days post transfection) more closely resemble those intracellular firefly luciferase (F) with little change compared to either the empty vector or WT while still retaining heightened mTORC1 signalling as indicated by the elevated levels of P-S6K1 Thr389 compared to cells transfected with the empty vector. […]

Entries after “also recorded” stand apart in the source; their conditions may differ.

Take `COc1ccc(-c2ccc3c(N4CCOC[C@@H]4C)nc(N4CCOC[C@@H]4C)nc3n2)cc1CO` [AZD8055, reference compound]: in assay [1] (AZD8055 at 100 nM for the total duration), the “effect on the Rheb mutant-induced increase in secreted Gaussia luciferase” value is reported as “prevented”.

Take “G29S: Rheb mutant G29S created by site-directed mutagenesis of human Rheb [Rheb G29S]”: in assay [2], the “mTORC1 signalling in the absence of upstream activation” value (“mTORC1 signalling in the absence” below) was “increased mTORC1 signalling over both the empty vector and Rheb-WT”; the “mTORC1 signalling when co-transfected with TSC1/TSC2” value (from here on “mTORC1 signalling … with TSC1/TSC2”) is reported as “no reduction”. For the same compound, in assay [3], the “hydrolysis of GTP bound to Rheb promoted by TSC1/TSC2” value is on record as “partial resistance; also recorded: a small degree of hydrolysis”.

For “Rheb-S21L: Rheb mutant S21L created by site-directed mutagenesis of human Rheb”, in assay [2], the “mTORC1 signalling in the absence” value is “increased mTORC1 signalling over both the empty vector and Rheb-WT”; the “mTORC1 signalling … with TSC1/TSC2” value is listed as “no reduction”. In addition, the “hydrolysis of GTP bound to Rheb promoted by TSC1/TSC2” value in assay [3] is on record as “completely unable to promote hydrolysis of GTP; also recorded: did not promote hydrolysis of GTP”.

Regarding “Q64L: Rheb mutant Q64L tested in the GAP assay [Rheb Q64L]”, in assay [3], the “hydrolysis of GTP bound to Rheb promoted by TSC1/TSC2” value is listed as “partial resistance; also recorded: a small degree of hydrolysis”.

For “Rheb-E40K: human Rheb protein with a lysine variant at residue 40 (E40K), SEQ ID NO. 5”, the “increase in secreted Gaussia luciferase” value in assay [1] worked out at 3 fold. Besides, in assay [4], the “rate of IgG secretion determined daily over 10 days” value is “maintain a constant rate of IgG secretion over a longer period”. Also, in assay [2], the “mTORC1 signalling in the absence” value is “increased mTORC1 signalling over both the empty vector and Rheb-WT”; the “mTORC1 signalling … with TSC1/TSC2” value is “no reduction”. The “hydrolysis of GTP bound to Rheb promoted by TSC1/TSC2” value in assay [3] is “completely unable to promote hydrolysis of GTP; also recorded: did not promote hydrolysis of GTP”. The “mTOR localisation to the lysosome (overlap with LAMP1)” value in assay [5] is on record as “promote localisation; also recorded: mTORC1 localisation at the lysosome is maintained”. Moreover, in assay [6], the “ER stress response (Western blot markers)” value is given as “mild ER stress response” and the “mTORC1 signalling (Western blot markers)” value is on record as “increased mTORC1 signalling”.

In the case of “G63A: Rheb mutant G63A tested in the GAP assay [Rheb G63A]”, the “hydrolysis of GTP bound to Rheb promoted by TSC1/TSC2” value in assay [3] is listed as “completely unable to promote hydrolysis of GTP; also recorded: did not promote hydrolysis of GTP”.

For the compound “Rheb-Y35N: human Rheb protein with an asparagine variant at residue 35 (Y35N), SEQ ID NO. 4”, in assay [1], the “increase in secreted Gaussia luciferase” value is given as 3 fold. For the same compound, the “increase in synthesis of intracellular Firefly luciferase compared to the empty vector” value in assay [7] is “ca. 1.2 fold”. In assay [2], the “mTORC1 signalling in the absence” value was “increased mTORC1 signalling over both the empty vector and Rheb-WT”; the “mTORC1 signalling … with TSC1/TSC2” value was “no reduction”. Further, the “hydrolysis of GTP bound to Rheb promoted by TSC1/TSC2” value in assay [3] is on record as “completely unable to promote hydrolysis of GTP; also recorded: did not promote hydrolysis of GTP”. For the same compound, in assay [5], the “mTOR localisation to the lysosome (overlap with LAMP1)” value is listed as “promote localisation; also recorded: strong mTOR localisation on lysosomes”.
